According to PubChem BioAssay (NCI):
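Where inhibition never reached the appropriate level, the endpoint shown equals the highest concentration tested. Otherwise, values were interpolated linearly from a five-concentration, 48-hour dose response in 96-well plates. GI50 = concentration required for 50% inhibition of growth. TGI marks complete inhibition of growth.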

Tests used:
Test in all cases: growth of human tumour cells (NCI), 48 h
786-0 renal = test system: 786-0 renal
A498 renal = test system: A498 renal
A549 NSCLC = test system: A549 NSCLC
ACHN renal = test system: ACHN renal
BT-549 breast = test system: BT-549 breast
CAKI-1 renal = test system: CAKI-1 renal
CCRF-CEM leukemia = test system: CCRF-CEM leukemia
COLO 205 colon = test system: COLO 205 colon
DU-145 prostate = test system: DU-145 prostate
EKVX NSCLC = test system: EKVX NSCLC
HCC-2998 colon = test system: HCC-2998 colon
HCT-116 colon = test system: HCT-116 colon
HCT-15 colon = test system: HCT-15 colon
HL-60(TB) leukemia = test system: HL-60(TB) leukemia
HOP-62 NSCLC = test system: HOP-62 NSCLC
HOP-92 NSCLC = test system: HOP-92 NSCLC
HS 578T breast = test system: HS 578T breast
HT29 colon = test system: HT29 colon
IGROV1 ovarian = test system: IGROV1 ovarian
K-562 leukemia = test system: K-562 leukemia
LOX IMVI melanoma = test system: LOX IMVI melanoma
M14 melanoma = test system: M14 melanoma
MALME-3M melanoma = test system: MALME-3M melanoma
MCF7 breast = test system: MCF7 breast
MDA-MB-231 breast = test system: MDA-MB-231 breast
MDA-MB-435 = test system: MDA-MB-435
MOLT-4 leukemia = test system: MOLT-4 leukemia
NCI-H226 lung = test system: NCI-H226 lung
NCI-H23 lung = test system: NCI-H23 lung
NCI-H460 lung = test system: NCI-H460 lung
NCI-H522 lung = test system: NCI-H522 lung
NCI/ADR-RES ovarian = test system: NCI/ADR-RES ovarian
OVCAR-3 ovarian = test system: OVCAR-3 ovarian
OVCAR-4 ovarian = test system: OVCAR-4 ovarian
OVCAR-5 ovarian = test system: OVCAR-5 ovarian
OVCAR-8 ovarian = test system: OVCAR-8 ovarian
PC-3 prostate = test system: PC-3 prostate
RPMI-8226 leukemia = test system: RPMI-8226 leukemia
RXF 393 renal = test system: RXF 393 renal
SF-268 CNS = test system: SF-268 CNS
SF-295 CNS = test system: SF-295 CNS
SF-539 CNS = test system: SF-539 CNS
SK-MEL-2 melanoma = test system: SK-MEL-2 melanoma
SK-MEL-28 melanoma = test system: SK-MEL-28 melanoma
SK-MEL-5 melanoma = test system: SK-MEL-5 melanoma
SK-OV-3 ovarian = test system: SK-OV-3 ovarian
SN12C renal = test system: SN12C renal
SNB-19 CNS = test system: SNB-19 CNS
SNB-75 CNS = test system: SNB-75 CNS
SR leukemia = test system: SR leukemia
SW-620 colon = test system: SW-620 colon
TK-10 renal = test system: TK-10 renal
U251 CNS = test system: U251 CNS
UACC-257 melanoma = test system: UACC-257 melanoma
UACC-62 melanoma = test system: UACC-62 melanoma
UO-31 renal = test system: UO-31 renal

Q: Which results are given for `CC1OC(O[C@@H]2[C@H](O)C(CO)OC(O[C@H]3COC(O[C@H]4CC[C@]5(C)[C@H]6CC[C@]78OC[C@@]9(CCC(C)(C)C[C@H]97)[C@H](O)C[C@@]8(C)[C@]6(C)CC[C@H]5C4(C)C)[C@@H](OC4OC(CO)[C@@H](O)[C@@H](O)[C@@H]4O)[C@@H]3O)[C@H]2OC2OC[C@@H](O)[C@@H](O)[C@@H]2O)[C@@H](O)[C@@H](O)[C@H]1O` (some centres not stated)?
A: GI50 (786-0 renal): 2.8 µM; TGI (786-0 renal): 5.16 µM; GI50 (A498 renal): 2.44 µM; TGI (A498 renal): 4.59 µM; GI50 (A549 NSCLC): 3.07 µM; TGI (A549 NSCLC): 5.91 µM; GI50 (ACHN renal): 0.621 µM; TGI (ACHN renal): 2.57 µM; GI50 (BT-549 breast): 2.36 µM; TGI (BT-549 breast): 4.55 µM; GI50 (CAKI-1 renal): 2.39 µM; TGI (CAKI-1 renal): 4.51 µM; GI50 (CCRF-CEM leukemia): 0.698 µM; TGI (CCRF-CEM leukemia): 3.26 µM; GI50 (COLO 205 colon): 2.29 µM; TGI (COLO 205 colon): 4.5 µM; GI50 (DU-145 prostate): 2.47 µM; TGI (DU-145 prostate): 4.92 µM; GI50 (EKVX NSCLC): 3.04 µM; TGI (EKVX NSCLC): 5.48 µM; GI50 (HCC-2998 colon): 1.56 µM; TGI (HCC-2998 colon): 3.39 µM; GI50 (HCT-116 colon): 1.78 µM; TGI (HCT-116 colon): 3.68 µM; GI50 (HCT-15 colon): 2.52 µM; TGI (HCT-15 colon): 4.78 µM; GI50 (HL-60(TB) leukemia): 0.345 µM; TGI (HL-60(TB) leukemia): 0.7 µM; GI50 (HOP-62 NSCLC): 2.57 µM; TGI (HOP-62 NSCLC): 4.94 µM; GI50 (HOP-92 NSCLC): 1.85 µM; TGI (HOP-92 NSCLC): 3.81 µM; GI50 (HS 578T breast): 2.45 µM; TGI (HS 578T breast): 5.5 µM; GI50 (HT29 colon): 2.8 µM; TGI (HT29 colon): 5.23 µM; GI50 (IGROV1 ovarian): 2.31 µM; TGI (IGROV1 ovarian): 4.65 µM; GI50 (K-562 leukemia): 2.95 µM; TGI (K-562 leukemia): 5.98 µM; GI50 (LOX IMVI melanoma): 2.06 µM; TGI (LOX IMVI melanoma): 4.11 µM; GI50 (M14 melanoma): 1.44 µM; TGI (M14 melanoma): 3.35 µM; GI50 (MALME-3M melanoma): 2.58 µM; TGI (MALME-3M melanoma): 4.96 µM; GI50 (MCF7 breast): 2.23 µM; TGI (MCF7 breast): 4.83 µM; GI50 (MDA-MB-231 breast): 2.07 µM; TGI (MDA-MB-231 breast): 4.18 µM; GI50 (MDA-MB-435): 2.16 µM; TGI (MDA-MB-435): 4.22 µM; GI50 (MOLT-4 leukemia): 0.535 µM; TGI (MOLT-4 leukemia): 3.27 µM; GI50 (NCI-H226 lung): 2.73 µM; TGI (NCI-H226 lung): 5.73 µM; GI50 (NCI-H23 lung): 1.91 µM; TGI (NCI-H23 lung): 4.14 µM; GI50 (NCI-H460 lung): 2.62 µM; TGI (NCI-H460 lung): 5.35 µM; GI50 (NCI-H522 lung): 2.45 µM; TGI (NCI-H522 lung): 4.69 µM; GI50 (NCI/ADR-RES ovarian): 2.64 µM; TGI (NCI/ADR-RES ovarian): 5.4 µM; GI50 (OVCAR-3 ovarian): 2.75 µM; TGI (OVCAR-3 ovarian): 5.04 µM; GI50 (OVCAR-4 ovarian): 2.25 µM; TGI (OVCAR-4 ovarian): 4.82 µM; GI50 (OVCAR-5 ovarian): 2.52 µM; TGI (OVCAR-5 ovarian): 4.92 µM; GI50 (OVCAR-8 ovarian): 3.5 µM; TGI (OVCAR-8 ovarian): 6.83 µM; GI50 (PC-3 prostate): 2.56 µM; TGI (PC-3 prostate): 4.77 µM; GI50 (RPMI-8226 leukemia): 1.93 µM; TGI (RPMI-8226 leukemia): 4.68 µM; GI50 (RXF 393 renal): 0.566 µM; TGI (RXF 393 renal): 2.85 µM; GI50 (SF-268 CNS): 2.55 µM; TGI (SF-268 CNS): 5.13 µM; GI50 (SF-295 CNS): 2.58 µM; TGI (SF-295 CNS): 4.76 µM; GI50 (SF-539 CNS): 1.55 µM; TGI (SF-539 CNS): 3.51 µM; GI50 (SK-MEL-2 melanoma): 2.32 µM; TGI (SK-MEL-2 melanoma): 4.57 µM; GI50 (SK-MEL-28 melanoma): 0.809 µM; TGI (SK-MEL-28 melanoma): 2.77 µM; GI50 (SK-MEL-5 melanoma): 2.27 µM; TGI (SK-MEL-5 melanoma): 4.37 µM; GI50 (SK-OV-3 ovarian): 2.41 µM; TGI (SK-OV-3 ovarian): 4.53 µM; GI50 (SN12C renal): 1.68 µM; TGI (SN12C renal): 3.56 µM; GI50 (SNB-19 CNS): 2.14 µM; TGI (SNB-19 CNS): 4.43 µM; GI50 (SNB-75 CNS): 0.256 µM; TGI (SNB-75 CNS): 1.41 µM; GI50 (SR leukemia): 0.0169 µM; TGI (SR leukemia): 1.52 µM; GI50 (SW-620 colon): 2.55 µM; TGI (SW-620 colon): 5.12 µM; GI50 (TK-10 renal): 3.59 µM; TGI (TK-10 renal): 5.97 µM; GI50 (U251 CNS): 2.69 µM; TGI (U251 CNS): 5.13 µM; GI50 (UACC-257 melanoma): 2.85 µM; TGI (UACC-257 melanoma): 5.17 µM; GI50 (UACC-62 melanoma): 2.27 µM; TGI (UACC-62 melanoma): 4.34 µM; GI50 (UO-31 renal): 0.323 µM; TGI (UO-31 renal): 1.14 µM
